Where “and” joins values, the source holds several entries; their conditions need not be identical. Equal entries are not always repeated. Inconclusive results and toxic doses are left out.
Tested on: BDF1 mice, Lewis lung carcinoma iv, survival T/C
Test: NCI In Vivo Anticancer Drug Screen. Data for tumor model Lewis Lung Carcinoma (intravenous) in B6D2F1 (BDF1) mice
Details: endpoint: median survival time, higher = longer survival
Description: The antitumor activity of compounds was measured in mice bearing transplantable tumors. Survival or tumor size were measured and the results are expressed as the measurement made in the treated group (T) divided by the measurement made in the vehicle treated control group (C). The tumor model used in this assay is Lewis Lung Carcinoma (intravenous) in B6D2F1 (BDF1) mice

[1] = dose: 6.25 mg/kg/injection, schedule: Q01DX009 (ip), vehicle: Klucel (hydroxypropylcellulose) (HPC)

CN(Cc1cnc2nc(N)nc(N)c2n1)c1ccc(C(=O)N[C@@H](CCC(=O)O)C(=O)O)cc1
T/C (dose: 0.23 mg/kg/injection, schedule: Q01DX021 (ip), vehicle: sodium bicarbonate): 105 % of control | T/C (dose: 0.25 mg/kg/injection, schedule: Q01DX009 (ip), vehicle: sodium bicarbonate): 103 % of control | T/C (dose: 0.39 mg/kg/injection, schedule: Q01DX009 (ip), vehicle: sodium bicarbonate): 102 % of control | T/C (dose: 0.39 mg/kg/injection, schedule: Q01DX021 (ip), vehicle: sodium bicarbonate): 102 % of control | T/C (dose: 0.5 mg/kg/injection, schedule: Q01DX009 (ip), vehicle: sodium bicarbonate): 121 % of control | T/C (dose: 0.65 mg/kg/injection, schedule: Q01DX009 (ip), vehicle: sodium bicarbonate): 100 % of control | T/C (dose: 0.65 mg/kg/injection, schedule: Q01DX021 (ip), vehicle: sodium bicarbonate): 105 % of control | T/C (dose: 1.0 mg/kg/injection, schedule: Q01DX009 (ip), vehicle: sodium bicarbonate): 107 % of control and 114 % of control and 118 % of control | T/C (dose: 1.08 mg/kg/injection, schedule: Q01DX009 (ip), vehicle: sodium bicarbonate): 95 % of control | T/C (dose: 1.08 mg/kg/injection, schedule: Q01DX021 (ip), vehicle: sodium bicarbonate): 114 % of control | T/C (dose: 1.8 mg/kg/injection, schedule: Q01DX009 (ip), vehicle: sodium bicarbonate): 110 % of control | T/C (dose: 2.0 mg/kg/injection, schedule: Q01DX009 (ip), vehicle: sodium bicarbonate): 96 % of control and 114 % of control | T/C (dose: 2.5 mg/kg/injection, schedule: Q04DX003 (ip), vehicle: sodium bicarbonate): 90 % of control | T/C (dose: 3.0 mg/kg/injection, schedule: Q01DX009 (ip), vehicle: sodium bicarbonate): 114 % of control | T/C (dose: 3.9 mg/kg/injection, schedule: Q04DX006 (ip), vehicle: sodium bicarbonate): 96 % of control | T/C (dose: 4.0 mg/kg/injection, schedule: Q01DX009 (ip), vehicle: sodium bicarbonate): 96 % of control | T/C (dose: 5.0 mg/kg/injection, schedule: Q04DX003 (ip), vehicle: sodium bicarbonate): 103 % of control | T/C (dose: 6.5 mg/kg/injection, schedule: Q04DX003 (ip), vehicle: sodium bicarbonate): 100 % of control and 103 % of control | T/C (dose: 6.5 mg/kg/injection, schedule: Q04DX003 (iv), vehicle: sodium bicarbonate): 107 % of control | T/C (dose: 6.5 mg/kg/injection, schedule: Q04DX006 (ip), vehicle: sodium bicarbonate): 109 % of control | T/C (dose: 10.0 mg/kg/injection, schedule: Q04DX003 (ip), vehicle: sodium bicarbonate): 108 % of control | T/C (dose: 10.8 mg/kg/injection, schedule: Q04DX003 (ip), vehicle: sodium bicarbonate): 119 % of control and 123 % of control | T/C (dose: 10.8 mg/kg/injection, schedule: Q04DX003 (iv), vehicle: sodium bicarbonate): 116 % of control | T/C (dose: 10.8 mg/kg/injection, schedule: Q04DX006 (ip), vehicle: sodium bicarbonate): 120 % of control | T/C (dose: 18.0 mg/kg/injection, schedule: Q04DX003 (iv), vehicle: sodium bicarbonate): 120 % of control | T/C (dose: 20.0 mg/kg/injection, schedule: Q04DX003 (ip), vehicle: sodium bicarbonate): 123 % of control | T/C (dose: 30.0 mg/kg/injection, schedule: Q04DX006 (ip), vehicle: sodium bicarbonate): 95 % of control

C1CCC2[N-]CC3CCCCC3[N-]CC3CCCCC3[N-]CC3CCCCC3[N-]CC2C1.[Cu] (stereo unspecified)
T/C (dose: 0.78 mg/kg/injection, schedule: Q01DX009 (ip), vehicle: Klucel (hydroxypropylcellulose) (HPC)): 106 % of control | T/C (dose: 3.13 mg/kg/injection, schedule: Q01DX009 (ip), vehicle: Klucel (hydroxypropylcellulose) (HPC)): 112 % of control | T/C [1]: 113 % of control

COc1c2occc2cc2ccc(=O)oc12
T/C (dose: 8.0 mg/kg/injection, schedule: Q01DX009 (ip), vehicle: saline with Tween-80): 109 % of control | T/C (dose: 16.0 mg/kg/injection, schedule: Q01DX009 (ip), vehicle: saline with Tween-80): 109 % of control | T/C (dose: 32.0 mg/kg/injection, schedule: Q01DX009 (ip), vehicle: saline with Tween-80): 96 % of control | T/C (dose: 64.0 mg/kg/injection, schedule: Q01DX009 (ip), vehicle: saline with Tween-80): 113 % of control | T/C (dose: 128.0 mg/kg/injection, schedule: Q01DX009 (ip), vehicle: saline with Tween-80): 110 % of control

[N-]=[N+]=CC(=O)CCC(N)C(=O)O (stereo unspecified)
T/C (dose: 0.01 mg/kg/injection, schedule: Q01DX009 (ip), vehicle: saline): 95 % of control | T/C (dose: 0.02 mg/kg/injection, schedule: Q01DX009 (ip), vehicle: saline): 98 % of control | T/C (dose: 0.05 mg/kg/injection, schedule: Q01DX009 (ip), vehicle: saline): 108 % of control | T/C (dose: 0.1 mg/kg/injection, schedule: Q01DX009 (ip), vehicle: saline): 109 % of control and 111 % of control

COc1ccc2nc3cc(Cl)ccc3c(NCCNCCNCCNc3c4ccc(Cl)cc4nc4ccc(OC)cc34)c2c1
T/C (dose: 3.12 mg/kg/injection, schedule: Q01DX009 (ip), vehicle: Klucel (hydroxypropylcellulose) (HPC)): 99 % of control | T/C [1]: 103 % of control | T/C (dose: 12.5 mg/kg/injection, schedule: Q01DX009 (ip), vehicle: Klucel (hydroxypropylcellulose) (HPC)): 89 % of control | T/C (dose: 25.0 mg/kg/injection, schedule: Q01DX009 (ip), vehicle: Klucel (hydroxypropylcellulose) (HPC)): 97 % of control

O=C1C2CC(Cl)C(SSC3CC4C(=O)N(SC(Cl)(Cl)C(Cl)Cl)C(=O)C4CC3Cl)CC2C(=O)N1SC(Cl)(Cl)C(Cl)Cl (stereo unspecified)
T/C (dose: 6.0 mg/kg/injection, schedule: Q01DX009 (ip), vehicle: Klucel (hydroxypropylcellulose) (HPC)): 104 % of control | T/C (dose: 12.0 mg/kg/injection, schedule: Q01DX009 (ip), vehicle: Klucel (hydroxypropylcellulose) (HPC)): 103 % of control | T/C (dose: 24.0 mg/kg/injection, schedule: Q01DX009 (ip), vehicle: Klucel (hydroxypropylcellulose) (HPC)): 89 % of control | T/C (dose: 48.0 mg/kg/injection, schedule: Q01DX009 (ip), vehicle: Klucel (hydroxypropylcellulose) (HPC)): 93 % of control | T/C (dose: 96.0 mg/kg/injection, schedule: Q01DX009 (ip), vehicle: Klucel (hydroxypropylcellulose) (HPC)): 95 % of control

O=P1(N(CCCl)CCCl)NCCCO1 (stereo unspecified)
T/C (dose: 39.0 mg/kg/injection, schedule: Q01DX001 (ip), vehicle: saline): 119 % of control | T/C (dose: 50.0 mg/kg/injection, schedule: Q01DX001 (ip), vehicle: saline): 155 % of control | T/C (dose: 78.0 mg/kg/injection, schedule: Q01DX001 (ip), vehicle: saline): 174 % of control | T/C (dose: 133.0 mg/kg/injection, schedule: Q10DX002 (ip), vehicle: saline): 168 % of control | T/C (dose: 200.0 mg/kg/injection, schedule: Q10DX002 (ip), vehicle: saline): 155 % of control

Cc1ccc(Cl)c2ccccc12
T/C (dose: 50.0 mg/kg/injection, schedule: Q01DX009 (ip), vehicle: saline with Tween-80): 98 % of control | T/C (dose: 100.0 mg/kg/injection, schedule: Q01DX009 (ip), vehicle: saline with Tween-80): 98 % of control | T/C (dose: 200.0 mg/kg/injection, schedule: Q01DX009 (ip), vehicle: saline with Tween-80): 107 % of control

OCCNCCNc1ccnc2cc(Cl)ccc12
T/C (dose: 12.5 mg/kg/injection, schedule: Q01DX009 (ip), vehicle: saline): 115 % of control | T/C (dose: 25.0 mg/kg/injection, schedule: Q01DX009 (ip), vehicle: saline): 94 % of control | T/C (dose: 50.0 mg/kg/injection, schedule: Q01DX009 (ip), vehicle: saline): 107 % of control | T/C (dose: 100.0 mg/kg/injection, schedule: Q01DX009 (ip), vehicle: saline): 98 % of control

C=CCCC(=O)CCCC(=O)O[C@@H]1[C@@H]2[C@H](CC1(C)C)[C@H](O)[C@@]13O[C@@H]1[C@H](O)[C@@]1(CO1)[C@@]23C
T/C (dose: 6.2 micrograms/kg/injection, schedule: Q01DX009 (ip), vehicle: Klucel (hydroxypropylcellulose) (HPC)): 116 % of control | T/C (dose: 12.5 micrograms/kg/injection, schedule: Q01DX009 (ip), vehicle: Klucel (hydroxypropylcellulose) (HPC)): 120 % of control | T/C (dose: 25.0 micrograms/kg/injection, schedule: Q01DX009 (ip), vehicle: Klucel (hydroxypropylcellulose) (HPC)): 107 % of control | T/C (dose: 50.0 micrograms/kg/injection, schedule: Q01DX009 (ip), vehicle: Klucel (hydroxypropylcellulose) (HPC)): 112 % of control

O=P(O)(NCCCl)NCCCl
T/C (dose: 25.0 mg/kg/injection, schedule: Q01DX001 (ip), vehicle: saline with Tween-80): 111 % of control | T/C (dose: 50.0 mg/kg/injection, schedule: Q01DX001 (ip), vehicle: saline with Tween-80): 123 % of control | T/C (dose: 100.0 mg/kg/injection, schedule: Q01DX001 (ip), vehicle: saline with Tween-80): 208 % of control

O=C(NCCCCCCNC(=O)N1CC1)N1CC1
T/C (dose: 0.3 mg/kg/injection, schedule: Q01DX009 (ip), vehicle: saline): 104 % of control | T/C (dose: 0.6 mg/kg/injection, schedule: Q01DX009 (ip), vehicle: saline): 119 % of control | T/C (dose: 1.2 mg/kg/injection, schedule: Q01DX009 (ip), vehicle: saline): 115 % of control | T/C (dose: 2.4 mg/kg/injection, schedule: Q01DX009 (ip), vehicle: saline): 120 % of control

From PubChem BioAssay AID274 (DTP/NCI, 2004)
